# Measurements as given in a melting point compilation (Tetko et al.; mined from patent text by program, amines drawn as free bases though some values may be those of a salt).
row,Structure (SMILES),melting point [°C]
1,CC(C)CC(CN(C)C)(C(=O)O)C(=O)O,134 to 137
2,N#CC(C#N)=C1N(CCCN2CCCCC2)CCN1CCN1CCCCC1,88 to 89
3,CCOC(=O)c1cn(CCOC(C)=O)c2c(F)c(F)c(F)c(C)c2c1=O,192 to 193
4,CCOC(=O)c1cn(-c2ccc(F)cc2)c2cc(F)c(F)c(C)c2c1=O,256 to 259
5,O=C(O)c1cn(C2CC2)c2nc(N3CCNCC3)c(F)cc2c1=O,274 to 276
6,CC1(C)[C@@H](C=C2CC2)[C@@H]1C(=O)O (relative stereo),85
7,Fc1ccc(F)c(N=C2CCCc3cc4c(nc32)C(=Nc2c(F)cccc2F)CCC4)c1,145 to 150
8,Nc1nc(-c2ccc(CCNC(=O)C(F)(F)F)cc2)cs1,180 to 182
9,Cn1nc(OCC(=O)c2ccc(F)cc2)c(-c2ccc(F)cc2)c1-c1ccc(S(C)(=O)=O)cc1,173 to 176
10,Nc1cc(C(F)(F)F)c([N+](=O)[O-])cc1C(=O)O,237
11,Cc1cn(C(C)(C)C(=O)N(C)C)nc1-c1cccc(Cl)c1,144 to 146
12,N#Cc1ccc(C(=O)c2ccc(OC3OC(CO)C(O)C(O)C3O)cc2)cc1 (stereo unspecified),122
13,COC(=O)c1cc(NC(C)=O)ccc1OC(C)=O,133 to 135
14,Cn1ccnc1COc1cc(Oc2ccc(S(C)(=O)=O)cc2)cc2cc(C3=NCC(CC(N)=O)S3)[nH]c12 (stereo unspecified),130 to 131
15,COc1ccc2c(c1OC(C)=O)NC(O)C1CCCN1C2=O (stereo unspecified),144 to 146
16,O=C(CC(=O)Nc1ccc2c(c1)NC(=O)C2)Nc1ccc(F)cc1,221
17,C[C@@H]1CN(c2cc3c(c(N)c2F)c(=O)c(C(=O)O)cn3C2CC2)C[C@H](C)N1,253 to 254
18,CCOC(=O)C1=C(C)NC(=O)N(C(=O)OCC)C1c1cccc([N+](=O)[O-])c1Cl (stereo unspecified),176 to 178
19,COC(=O)c1ccccc1S(=O)(=O)NC(=O)n1nc(OCC(F)(F)F)n(C)c1=O,153
20,COCCCNc1ccc([N+](=O)[O-])cc1C,26 to 28
21,Nc1noc(-c2nc(Cl)c(N)nc2N)n1,278
22,COC(=O)c1cc(-c2ncnc(C(F)F)c2Cl)c(F)cc1Cl,100 to 101
23,Cc1ccc(CC(=O)CCCC(=O)O)c(C)c1,75 to 76.5

row,Structure (SMILES),melting point [°C]
1,O=C1c2cccc3cc4ccccc4c(c23)C(=O)N1CCCNCCN1C(=O)c2cccc3cc4ccccc4c(c23)C1=O,260
2,CCCCNc1nc2cnnc(Cl)c2cc1C(=O)OCC,127
3,COc1cccc(NC(=O)c2ccccc2C(c2ccc(O)cc2)c2ccc(O)cc2)c1,106 to 107
4,CC(C)c1ccccc1N/C(S)=C(\C#N)C(=O)Nc1ccc(-c2ncn(-c3ccc(OC(F)(F)F)cc3)n2)cc1,159 to 162
5,CC(C=O)n1nnc2ccc(Oc3cc(F)c(C(F)(F)F)c(Cl)c3)cc21 (stereo unspecified),107 to 108
6,CC(=O)O[C@H]1C=C(Br)C(=O)[C@@H]2O[C@H]12,93 to 94
7,Nc1cnc2cc(Cl)ccc2c1Nc1ccc(F)cc1,198 to 200
8,CCc1coc(Cc2ccc(NC(=O)/C=C/c3cnn(C)c3-c3ccc(F)cc3)cc2)n1,174 to 175
9,CCOC(=O)C1=C(C)NC(=S)N(C(=O)OC(C)C)C1c1cccc(Cl)c1Cl (stereo unspecified),157 to 159
10,COc1cc2c(cc1OC)-c1ccc(OC)c(OC)c1C2=O,208 to 209
11,O=C(NCC12CC3CC(CC(C3)C1)C2)c1cc(N2CC2)ccc1Cl,154 to 155
12,O=C(O)CCCc1cc2nc(Cl)ccc2n1S(=O)(=O)c1cc(C(F)(F)F)cc(C(F)(F)F)c1,155 to 164
13,O=[N+]([O-])c1ccc(N2CCN(c3ccncc3)CC2)cc1,213 to 216
14,CCOC(=O)C(NC(C)=O)c1csc(NC(C)=O)n1 (stereo unspecified),149 to 150
15,CCCCNC(=O)NS(=O)(=O)c1ccc(CCNC(=O)N2CC(C)=C(C)C2=O)cc1,198 to 200
16,"CC(=O)c1ccc(-c2ccc(CC(C)O)cc2)cc1 (single isomer, unassigned; (-))",139 to 140
17,CCC(CC)Nc1nc(C)nc(Nc2c(C)cc(C)nc2C)c1[N+](=O)[O-],151 to 152
18,CC(C)(C)C=C/C=C/C(C)(C)C,78 to 79
19,CCn1ncc2c1ncc1c(OCCC(C)C)nc3ncnn3c12,140 to 142
20,CCCCCCCCCCCCCC(=O)c1c(O)c(C)c(C)c(O)c1CCC,70
21,O=C(NCCCCCOc1ccc(-n2ccnc2)cc1)c1ccc(Br)cc1,150 to 151
22,COC(=O)c1ccc(CCN(C)c2cn([C@H]3CCc4c(F)cc(F)cc4C3)c(=S)[nH]2)cc1,159 to 160
23,Cc1c(C(Cl)=Cc2ccc(C(F)(F)F)cc2)ccc2nc(N)nc(N)c12,> 300

row,Structure (SMILES),melting point [°C]
1,O=C(Nc1ccc(-n2nc(C(F)(F)F)cc2C(F)(F)F)cc1)C1(O)CC1,198 to 200
2,CCOC(=O)c1nc2c(Cl)nc3cc(C(F)(F)F)ccc3n2c1CBr,196 to 198
3,C=C1COc2c(F)c(F)cc3c(=O)c(C(=O)OCC)cn1c23,258 to 263
4,CCOC(=O)N1CCN(c2ccc(C(=O)CCc3ccc(N)cc3)cc2)CC1,106 to 107
5,CNS(=O)(=O)c1ccccc1Nc1nc(Nc2ccc3c(c2)CCCC(=O)N3CC(=O)N2CCN(C)CC2)ncc1Cl,148 to 151
6,CN(Cc1cccc2c1CN(C1CCC(=O)NC1=O)C2=O)C(=O)NC1CCCCC1 (stereo unspecified),219 to 221
7,COCOc1ccccc1-c1cc(-c2cc([N+](=O)[O-])ccc2Cl)c(C#N)c(NC(=O)c2cccs2)n1,208 to 209
8,CC=CC(Oc1nc(OC)cc(OC)n1)C(C)(C)C#N (stereo unspecified),91 to 92
9,CCOC(=O)C(=C1NCCCS1)[N+](=O)[O-],100 to 102
10,O=C(O)c1ccc(-c2ccccc2OC2OC(CO)C(O)C(O)C2O)cc1 (stereo unspecified),248 to 249
11,N#Cc1ccc(-c2cc(Oc3cccc4ccc(N)nc34)ncn2)cc1,234 to 236
12,CC(=O)C1CCC2C3CCC4CCCCC4(C)C3CCC12C (stereo unspecified),84 to 90
13,NC(=O)CCn1c2ccc(O)cc2c2c3c(c(-c4ccccc4Cl)cc21)C(=O)NC3=O,319 to 322
14,O=C(O)c1cc2c3c(c1)CCCC3CCC2,208 to 209
15,O=C(O)CCC1(CCC(=O)O)CC(=O)c2ccc(OCCCOc3ccccc3)cc2O1,132 to 133
16,Cc1oc2c(C)c(C)c(NC(=O)c3ccccc3)c(C)c2c1-c1ccc(C(C)C)cc1,225 to 227
17,CCc1c(C(=O)N(O)O)cc(C(C)(C)C)c(O)c1C(C)(C)C,147 to 150
18,CC(C)(C)OC(=O)NCCC(=O)NC(CC(=O)OCc1ccccc1)c1ccccc1 (stereo unspecified),124 to 126
19,C[C@H]1COc2c(N3C[C@@H](N)[C@@H](C4CC4)C3)c(F)cc3c(=O)c(C(=O)O)cn1c23,218 to 220
20,N#Cc1cc(Cl)cc2c1OC(C(F)(F)F)C(C(=O)O)=C2 (stereo unspecified),238 to 240
21,CCOC(=O)CCc1c(OCc2ccc(OCc3nc(-c4ccccc4)oc3C)cc2)ccc2ccccc12,86 to 87

# Continued, values first:
row,melting point [°C],Structure (SMILES)
1,150 to 152,CS(=O)(=O)c1cccc(/C=C/C2=CCN(Cc3ccccc3)CC2)c1
2,92 to 93,CC(C)(OCc1nn(Cc2ccccc2)c2ccccc12)C(=O)NN
3,221 to 222,Cc1nc(-c2ccccc2N)[nH]c1-c1cccnc1
4,212 to 213,Clc1ccc(Nc2nc(-c3cccc(Cl)n3)nc3ccccc23)cc1
5,159 to 160,O=C(C#Cc1ccc(Br)cc1)Nc1ccccc1
6,174 to 177,Nc1sc2c(c1C(=O)c1ccc3ccccc3c1)CCN(Cc1ccccc1)C2
7,105,C#CCN1CCCc2ccc(OC(=O)Nc3ccccc3Br)cc21
8,76,C[C@@H](NC(=CC(=O)OC(C)(C)C)Cc1cc(F)c(F)cc1F)c1ccccc1
9,266,Cc1ccc(-c2nc3ccccc3[nH]2)cn1
10,158 to 159,Cc1nc(-c2ccccc2C(F)(F)F)c(CC(Cl)C(=O)O)o1 (stereo unspecified)
11,152 to 155,c1ccc2c3c([nH]c2c1)CCS3
12,192 to 194,CC(=O)Nc1ccc(-n2c(-c3ccccc3)cc3c2CCCC3)cc1C(=O)O
13,71 to 72,COc1cc(/C=C/CO)ccc1OCc1csc(-c2ccccc2)n1
14,227,O=C(Nc1ccccc1)N1CC2(CN1)CNN(C(=O)Nc1ccccc1)C2
15,56 to 58,CCN(CCO)CCN1C(=O)c2ccccc2C1=O
16,184 to 186,CNc1ccc(N)cc1C(=O)n1nc(O)c2ccccc21
17,160 to 162,CC(C)(C)N(NC(=S)c1ccc(Cl)cc1)C(=O)c1ccccc1

row,melting point [°C],Structure (SMILES)
1,172 to 175,CCn1ncc(C(=O)c2ccc(S(C)(=O)=O)cc2Cl)c1O
2,171 to 172,Cn1cc(-c2cc3cccnc3[nH]2)c2cc(C(=O)NCC(O)CO)ccc21 (stereo unspecified)
3,89 to 90,CCOC(=O)C(=O)c1cn(CCCNC(=O)OC(C)(C)C)c2ccccc12
4,169 to 171,CCn1ncc2c(NCc3ccc(OC)c(OC)c3)c3ccccc3nc21
5,114 to 116,CSC(=S)N1Cc2[nH]c3ccccc3c2CC1CO (stereo unspecified)
6,149,Cc1nc2n(c(=O)c1CCO)CCS2
7,163,CCCN(Cc1ccccc1C(=O)O)c1ccc(CC(=O)O)cc1
8,123 to 124,COC(=O)C(O)c1ccccc1Nc1c(Cl)cccc1Cl (stereo unspecified)
9,248 to 249,CC(C)NC(=O)Cn1c(-c2ccc(Cl)cc2)nc2cccnc21
10,138 to 143,COc1nc(OC)c2cc(CBr)ccc2n1
11,45 to 47,Clc1ccc(OCc2cccs2)cc1
12,112 to 114,CNc1ccccc1CS(=O)c1nccn1-c1cc(C)ccn1 (stereo unspecified)
13,118 to 120,C=CCC(NC(C)=O)C(=O)NCc1ccccc1 (stereo unspecified)
14,144 to 146,CN(C)CC(O)CC1(O)c2ccccc2CCc2ccccc21 (stereo unspecified)
15,152 to 154,CC(=O)NC[C@@H]1CCCc2cc(S(=O)(=O)c3ccccc3)cc(F)c21
16,85 to 87,O=C1CCSc2cc(-c3ccccc3)ccc21
17,120 to 121,COc1ccc2c(Cl)c(C(=O)Cl)sc2c1
